Assay results taken from patent US20230322815A1, “NOVEL COMPOUNDS AND THERAPEUTIC USES THEREOF” (University of Huddersfield, priority 2020, published 2023).

Tests used:
[1] = Dephosphorylation of phosphorylated amino acid (31P NMR); settings: 37° C.
Method: FIG. 6. Phosphatase activity of [L2Zn3]^6+. ^31P NMR spectra using different substrates including PhOPO3 (spectra A to D), serine phosphate (spectra E to H), threonine phosphate (spectra I to L) and tyrosine phosphate (spectra M to P). Specific details for each ^31P NMR spectra are as follows: Spectra A, E, I and M represent substrate alone (44 hrs incubated @ 37° C.); Spectra B, F, J and N represents [L2Zn3]^6+ plus substrate (t=0 min); Spectra C, G, K and O represents [L2Zn3]^6+ plus substrate incubated @ 37° C. for 19 hours; Spectra D, H, L and […] represents [L2Zn3]^6+ plus substrate incubated @ 37° C. for 44 hours. The ^31P NMR of [L2Zn3(PO4)]^3+ gives a signal at 8.6 ppm.
Given the importance of protein phosphorylation in inter- and intra-cellular signalling and to cell function, and its common dysregulation in cancers,^30, 31 it was next analysed whether the Zn^2+ complex could dephosphorylate the phosphorylated amino acids serine, threonine and tyrosine. […] Dephosphorylation of the amino acid threonine-OPO3^2− by the Zn^2+ complex was much slower however and after 48 hrs threonine-OPO3^2− was still the major species (FIG. 6, spectra I-L). Differences in reactivity towards different substrates can be attributed to both steric and electronic effects. […]

[2] = system: HCT116 p53^+/+ cancer cells; experiment: Autophagy (CYTO-ID staining, confocal); assay type: cell-based, human; settings: 3.125 μM, 40 h
Method: FIG. 18. The effects of [L2Cu3]^6+, [L2Zn3]^6+ and [L2Mn3]^6+ on cellular vacuole formation and autophagy in the HCT116 p53^+/+ cancer cells. Representative confocal images are shown of HCT116 p53^+/+ cancer cells following 40 h treatment with vehicle control or 3.125 μM [L2Cu3]^6+, [L2Zn3]^6+, or [L2Mn3]^6+.
Autophagy studies: The effects of 3.125 μM [L2Cu3]^6+, [L2Zn3]^6+ and [L2Mn3]^6+ treatments (40 h) on the induction of cellular vacuoles and autophagy in the HCT116 p53^−/−, HCT116 p53^+/+ and ARPE19 cells are presented in FIGS. 17-19 with representative cell images shown. […] In the ARPE19 cells, levels of autophagy were low with all treatments and similar to basal levels in control-treated cells (FIG. 19).

[Zn+2].[Zn+2].[Zn+2].c1ccc(-c2csc(NCCN(CCNc3nc(-c4ccccn4)cs3)CCNc3nc(-c4ccccn4)cs3)n2)nc1.c1ccc(-c2csc(NCCN(CCNc3nc(-c4ccccn4)cs3)CCNc3nc(-c4ccccn4)cs3)n2)nc1 [[L2Zn3]^6+]
time to completion of dephosphorylation [1]: 48 h | rate of dephosphorylation ([1]; after 48 hrs threonine-OPO3^2− still the major species): much slower | induction of autophagy [2]: barely detectable
